Target: T1, hNLRP3 (Homo sapiens, UniProt Q96P20)
T1 construct: THP-1 cells were purchased from the American Type Culture Collection; host or cells: THP-1 cells, PMA-differentiated
Assay: IL-1β production in PMA-differentiated THP-1 cells stimulated with gramicidin
Type: cell-based
Settings: gramicidin 5 μM, IL-1β in supernatant, Table 1
Experimental: Bioassay: IL-1β Production in PMA-Differentiated THP-1 Cells Stimulated with Gramicidin. Procedure 1:
Cell culture—THP-1 cells were purchased from the American Type Culture Collection and sub-cultured according to instructions from the supplier. Prior to experiments, cells were cultured in RPMI 1640 containing 10% heat inactivated FBS, penicillin (100 units/ml) and streptomycin (100 μg/ml), and maintained in log phase prior to experimental setup. Prior to the experiment THP-1 were treated with PMA (Phorbol 12-myristate 13-acetate) (10 μg/ml) for 24 hours. The day of the experiment the media was removed and attaching cells were treated with trypsin for 2 minutes, cells were then collected, washed with PBS (phosphate buffer saline), spin down, resuspended in 2% heat inactivated FBS with RPMI at a concentration of 1×10^6 cells/ml, and 100 ul was plated in a 96 well plate. Cells were incubated with compounds for 1 hours and then stimulated with Gramicidin (5 μM) (Enzo) for 2 hours. Cell free supernatant was collected and the production of IL-1β was evaluated by ELISA. Compounds were dissolved in dimethyl sulfoxide (DMSO) and added to the culture medium to achieve desired concentration (e.g. 100, 30, 10, 3, 1, 0.3 or 0.1 μM). A vehicle only control was run concurrently with each experiment. Final DMSO concentration was 1%.
THP-1 cells were purchased from the American Type Culture Collection and sub-cultured according to instructions from the supplier. Prior to experiments, cells were cultured in complete RPMI 1640 (containing 10% heat inactivated FBS, penicillin (100 units/ml) and streptomycin (100 μg/ml)), and maintained in log phase prior to experimental setup. Prior to the experiment THP-1 were treated with PMA (Phorbol 12-myristate 13-acetate) (20 ng/ml) for 16-18 hours. On the day of the experiment the media was removed and adherent cells were detached with trypsin for 5 minutes. Cells were then harvested, washed with complete RPMI 1640, spun down, resuspended in RPMI 1640 (containing 2% heat inactivated FBS, penicillin (100 units/ml) and streptomycin (100 μg/ml). The cells were plated in a 384-well plate at a density of 50,000 cells/well (final assay volume 50 μl). Compounds were dissolved in dimethyl sulfoxide (DMSO) and added to the culture medium to achieve desired concentration (e.g. 100, 33, 11, 3.7, 1.2, 0.41, 0.14, 0.046, 0.015, 0.0051, 0.0017 μM). Cells were incubated with compounds for 1 hour and then stimulated with gramicidin (5 μM) (Enzo) for 2 hours. Cell free supernatant was collected and the production of IL-1β was evaluated by HTRF (cisbio). A vehicle only control was run concurrently with each experiment. Final DMSO concentration was 0.38%.

T1 sequence (Q96P20 whole entry): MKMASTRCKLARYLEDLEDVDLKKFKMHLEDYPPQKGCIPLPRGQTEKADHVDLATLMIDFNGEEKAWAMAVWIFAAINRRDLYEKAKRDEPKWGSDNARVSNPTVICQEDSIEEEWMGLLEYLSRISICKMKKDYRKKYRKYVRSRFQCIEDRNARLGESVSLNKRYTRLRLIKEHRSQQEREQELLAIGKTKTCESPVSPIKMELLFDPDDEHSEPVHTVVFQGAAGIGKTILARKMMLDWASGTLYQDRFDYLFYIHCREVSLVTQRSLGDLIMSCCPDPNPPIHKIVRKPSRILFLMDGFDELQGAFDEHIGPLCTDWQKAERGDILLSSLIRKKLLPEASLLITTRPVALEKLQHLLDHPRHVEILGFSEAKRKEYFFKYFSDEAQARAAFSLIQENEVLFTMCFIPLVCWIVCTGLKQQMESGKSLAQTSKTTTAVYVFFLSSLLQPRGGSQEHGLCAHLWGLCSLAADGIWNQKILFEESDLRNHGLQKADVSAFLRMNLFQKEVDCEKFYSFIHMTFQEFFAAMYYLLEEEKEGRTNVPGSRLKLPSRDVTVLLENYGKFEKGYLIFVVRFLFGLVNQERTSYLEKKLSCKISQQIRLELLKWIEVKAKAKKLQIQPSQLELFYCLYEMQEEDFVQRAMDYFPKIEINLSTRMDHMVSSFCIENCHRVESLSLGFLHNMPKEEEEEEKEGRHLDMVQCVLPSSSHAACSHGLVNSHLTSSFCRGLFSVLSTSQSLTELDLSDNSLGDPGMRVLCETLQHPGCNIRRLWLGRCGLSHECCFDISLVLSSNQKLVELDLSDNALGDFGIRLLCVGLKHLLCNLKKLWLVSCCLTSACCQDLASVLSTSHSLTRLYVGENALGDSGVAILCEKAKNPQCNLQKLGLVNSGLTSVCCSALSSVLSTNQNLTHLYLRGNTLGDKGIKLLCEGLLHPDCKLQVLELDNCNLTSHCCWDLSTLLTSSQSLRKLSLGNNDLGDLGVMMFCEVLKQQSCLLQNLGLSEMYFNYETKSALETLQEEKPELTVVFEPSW

Compound | IC50 [nM]
CC(C)c1cc(C(N)=O)cc(C(C)C)c1NC(=O)NS(=O)(=O)c1cc(C(C)(C)O)co1 [Compound 116, 4-(3-(4-(2-hydroxypropan-2-yl)furan-2-ylsulfonyl)ureido)-3,5-diisopropylbenz-amide] | 15000 to 35000

Same assay, conditions: gramicidin 5 μM, IL-1β in supernatant, Table 2

Compound | IC50 [nM]
CC(C)(O)c1cnc(S(=O)(=O)NC(=O)Nc2c3c(cc4c2CCC4)CCC3)s1 [Compound 233, N-(1,2,3,5,6,7-hexahydros-indacen-4-ylcarbamoyl)-5-(2-hydroxypropan-2-yl)thiazole-2-sulfonamide] | < 1000
CC(C)(O)c1cnc(S(=O)(=O)NC(=O)Nc2cccc3c2CCC3)s1 [Compound 190, N-(2,3-dihydro-1H-inden-4-ylcarbamoyl)-5-(2-hydroxypropan-2-yl)thiazole-2-sulfonamide] | 1000 to 5000
CC(C)c1cc(Cl)cc(C(C)C)c1NC(=O)NS(=O)(=O)c1ncc(C(C)(C)O)s1 [Compound 219, N-(4-chloro-2,6-diisopropylphenyl-carbamoyl)-5-(2-hydroxypropan-2-yl)thiazole-2-sulfonamide] | < 1000
O=C(Nc1c2c(cc3c1CCC3)CCC2)NS(=O)(=O)c1ncc(C2(O)CCCC2)s1 [Compound 183] | < 1000
CC(C)c1cc(C#N)cc(C(C)C)c1NC(=O)NS(=O)(=O)c1cc(C(C)(C)O)c(Cl)s1 [Compound 251, 5-chloro-N-(4-cyano-2,6-diisopropylphenyl-carbamoyl)-4-(2-hydroxypropan-2-yl)thiophene-2-sulfonamide] | < 1000
Cc1sc(S(=O)(=O)NC(=O)Nc2c(C(C)C)ccc(Cl)c2C(C)C)cc1C(C)(C)O [Compound 153, N-(3-chloro-2,6-diisopropylphenyl-carbamoyl)-4-(2-hydroxypropan-2-yl)-5-methylthiophene-2-sulfonamide] | 5000 to 15000
CC(C)c1cccc(C(C)C)c1NC(=O)NS(=O)(=O)c1ncc(C(C)(C)O)s1 [Compound 261] | 1000 to 5000
Cc1sc(S(=O)(=O)NC(=O)Nc2c(C(C)C)cc(Cl)cc2C(C)C)cc1C(C)(C)O [Compound 156, N-(4-chloro-2,6-diisopropylphenyl-carbamoyl)-4-(2-hydroxypropan-2-yl)-5-methylthiophene-2-sulfonamide] | < 1000
CC(C)c1cc(F)cc(C(C)C)c1NC(=O)NS(=O)(=O)c1ncc(C(C)(C)O)s1 [Compound 139, N-(4-fluoro-2,6-diisopropylphenyl-carbamoyl)-5-(2-hydroxypropan-2-yl)thiazole-2-sulfonamide] | < 1000
O=C(Nc1c2c(c(F)c3c1CCC3)CCC2)NS(=O)(=O)c1ccc(C2(O)CC2)s1 [Compound 200] | < 1000
CCc1cc(C#N)cc(CC)c1NC(=O)NS(=O)(=O)c1ncc(C(C)(C)O)s1 [Compound 158, N-(4-cyano-2,6-diethylphenylcarbamoyl)-5-(2-hydroxypropan-2-yl)thiazole-2-sulfonamide] | 1000 to 5000
O=C(Nc1c2c(cc3c1CCC3)CCC2)NS(=O)(=O)c1ccc(C2(O)CC2)s1 [Compound 202, N-(1,2,3,5,6,7-hexahydros-indacen-4-ylcarbamoyl)-5-(1-hydroxycyclopropyl) thiophene-2-sulfonamide] | < 1000
CC(C)c1cc(F)cc(C(C)C)c1NC(=O)NS(=O)(=O)c1nc(C(C)(C)O)cs1 [Compound 148, N-(4-fluoro-2,6-diisopropylphenylcarbamoyl)-4-(2-hydroxypropan-2-yl) thiazole-2-sulfonamide] | 1000 to 5000
CC(C)c1cc(Cl)cc(C(C)C)c1NC(=O)NS(=O)(=O)c1cc(C2(O)CC2)cs1 [Compound 229, N-(4-chloro-2,6-diisopropylphenyl-carbamoyl)-4-(1-hydroxycyclo-propyl)thiophene-2-sulfonamide] | < 1000
CC(C)c1cccc(C(C)C)c1NC(=O)NS(=O)(=O)c1cc(C2(O)CC2)cs1 [Compound 230, N-(2,6-diisopropylphenyl-carbamoyl)-4-(1-hydroxycyclo-propyl)thiophene-2-sulfonamide] | < 1000
CC(C)c1cc(F)cc(C(C)C)c1NC(=O)NS(=O)(=O)c1cnc(C(C)(C)O)s1 [Compound 269] | 1000 to 5000
CC(C)c1cc(F)cc(C(C)C)c1NC(=O)NS(=O)(=O)c1cc(C(C)(C)O)cs1 [Compound 211, N-(4-fluoro-2,6-diisopropylphenyl-carbamoyl)-4-(2-hydroxypropan-2-yl)thiophene-2-sulfonamide] | < 1000

Compound | IC50 [nM]
CC(C)c1ccc(Cl)c(C(C)C)c1NC(=O)NS(=O)(=O)c1cc(C(C)(C)O)cs1 [Compound 180, N-(3-chloro-2,6-diisopropylphenylcarbamoyl)-4-(2-hydroxypropan-2-yl)thiophene-2-sulfonamide] | < 1000
Cc1nc(S(=O)(=O)NC(=O)Nc2c(C(C)C)cc(C#N)cc2C(C)C)sc1C(C)(C)O [Compound 155] | 5000 to 15000
CC(C)c1cc(C#N)cc(C(C)C)c1NC(=O)NS(=O)(=O)c1ccc(C(C)(C)O)s1 [Compound 184, N-(4-cyano-2,6-diisopropylphenylcarbamoyl)-5-(2-hydroxypropan-2-yl) thiophene-2-sulfonamide] | < 1000
CC(C)(O)c1cnc(S(=O)(=O)NC(=O)Nc2c3c(c(Cl)c4c2CCC4)CCC3)s1 [Compound 221, N-(8-chloro-1,2,3,5,6,7-hexahydros-indacen-4-ylcarbamoyl)-5-(2-hydroxypropan-2-yl)thiazole-2-sulfonamide] | < 1000
CC(C)(O)c1cnc(S(=O)(=O)NC(=O)Nc2c3c(c(F)c4c2CCC4)CCC3)s1 [Compound 209, N-(8-fluoro-1,2,3,5,6,7-hexahydros-indacen-4-ylcarbamoyl)-5-(2-hydroxypropan-2-yl)thiazole-2-sulfonamide] | < 1000
CC(C)c1cc(F)cc(C(C)C)c1NC(=O)NS(=O)(=O)c1ccc(C2(O)CC2)s1 [Compound 198, N-(4-fluoro-2,6-diisopropylphenylcarbamoyl)-5-(1-hydroxycyclopropyl) thiophene-2-sulfonamide] | < 1000
CC(C)c1ccc(Cl)c(C(C)C)c1NC(=O)NS(=O)(=O)c1cc(C2(O)CC2)co1 [Compound 181, N-(3-chloro-2,6-diisopropylphenylcarbamoyl)-4-(1-hydroxycyclopropyl) furan-2-sulfonamide] | < 1000
O=C(Nc1c2c(c(F)c3c1CCC3)CCC2)NS(=O)(=O)c1cc(C2(O)CC2)co1 [Compound 207, N-(8-fluoro-1,2,3,5,6,7-hexahydros-indacen-4-ylcarbamoyl)-4-(1-hydroxycyclo-propyl)furan-2-sulfonamide] | < 1000
CC(C)c1ccc(Cl)c(C(C)C)c1NC(=O)NS(=O)(=O)c1ncc(C(C)(C)O)s1 [Compound 179, N-(3-chloro-2,6-diisopropylphenylcarbamoyl)-5-(2-hydroxypropan-2-yl)thiazole-2-sulfonamide] | 1000 to 5000
CC(C)c1cc(C#N)cc(C(C)C)c1NC(=O)NS(=O)(=O)c1cc(C(C)(C)O)cs1 [Compound 217, N-(4-cyano-2,6-diisopropylphenyl-carbamoyl)-4-(2-hydroxypropan-2-yl)thiophene-2-sulfonamide] | < 1000
CC(C)c1ccc(F)c(C(C)C)c1NC(=O)NS(=O)(=O)c1cc(C2(O)CC2)co1 [Compound 212] | < 1000
CC(C)c1cccc(C(C)C)c1NC(=O)NS(=O)(=O)c1cnc(C(C)(C)O)s1 [Compound 270] | 1000 to 5000
CC(C)c1cc(F)cc(C(C)C)c1NC(=O)NS(=O)(=O)c1cc(C(C)(C)O)c(Cl)s1 [Compound 253, 5-chloro-N-(4-fluoro-2,6-diisopropylphenyl-carbamoyl)-4-(2-hydroxypropan-2-yl)thiophene-2-sulfonamide] | < 1000
CC(C)c1ccc(F)c(C(C)C)c1NC(=O)NS(=O)(=O)c1ccc(C(C)(C)O)s1 [Compound 185, N-(3-fluoro-2,6-diisopropylphenylcarbamoyl)-5-(2-hydroxypropan-2-yl)thiophene-2-sulfonamide] | 1000 to 5000
O=C(Nc1cccc2c1CCC2)NS(=O)(=O)c1cc(C2(O)CC2)co1 [Compound 192, N-(2,3-dihydro-1H-inden-4-ylcarbamoyl)-4-(1-hydroxycyclopropyl) furan-2-sulfonamide] | 1000 to 5000
CC(C)(O)c1ncsc1S(=O)(=O)NC(=O)Nc1c2c(cc3c1CCC3)CCC2 [Compound 266] | 1000 to 5000

From patent publication US11339136B2 (Novartis AG, priority 2016, dated 2022)
